For 4 molecules, IC25 growth inhibition results are on record in the supplement of paper PMC12350171.

Bounds are passed on as bounds.

Common to all, as to assay: IC25 growth inhibition; higher = less potent
For one assay, the system named is Escherichia coli ED1a. The method in brief:
(§1)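 Overnight monocultures grown in mGAM were moved into pre-reduced plates containing twofold drug dilutions, at a starting OD578 of 0.01 with 1% DMSO (or water). Plates were kept anaerobic and read hourly at OD578 in a plate reader, with at least three biological replicates. For each concentration, the median area under the growth curve was made monotonic, and IC25 was the lowest concentration whose median fell below a cutoff, reported as a tested interval. That cutoff was 0.75.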

In assay [1] the test system is Fusobacterium nucleatum subsp. Nucleatum. The method in brief: as §1
A further assay concerns Clostridium ramosum. The method in brief:
as §1

A further assay relates to Coprococcus comes. Put shortly:
as §1

The test system of a further assay is Bacteroides uniformis. Put shortly: as §1
Another assay deals with Ruminococcus gnavus. The method in brief: as §1
In another assay the test system is Roseburia intestinalis. Put shortly: as §1
For the next assay, the system named is Bacteroides vulgatus. The method in brief: as §1
Assay [2] relates to Streptococcus parasanguinis. Put shortly: as §1
Assay [3] deals with Bacteroides thetaiotaomicron. Put shortly:
as §1

The next assay relates to Dorea formicigenerans. Put shortly: as §1
The test system of the next assay is Clostridium bolteae. Put shortly: as §1
A further assay deals with Streptococcus salivarius. Put shortly: as §1
For another assay, the system named is Vibrio cholerae. The method in brief: as §1
The next assay deals with Parabacteroides merdae. Put shortly:
as §1

Assay [4] deals with Yersinia pseudotuberculosis. Put shortly:
as §1

In the next assay the test system is Bacteroides fragilis NT. Put shortly: as §1
For a further assay, the system named is Shigella flexneri. Put shortly:
as §1

Assay [5] relates to Yersinia enterocolitica WA-314. Put shortly:
as §1

Assay [6] relates to Clostridium saccharolyticum. The method in brief:
as §1

A further assay concerns Clostridium perfringens. The method in brief:
as §1

The subject of assay [7] is Salmonella enterica typhimurium. Put shortly: as §1
A further assay has as its system Eubacterium rectale. Put shortly:
as §1

For a further assay, the system named is Collinsella aerofaciens. Put shortly: as §1
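Also: lowest concentration where monotonic median growth AUC falls below 0.75 of drug-free control.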

Turning to `CO[C@@H]1[C@@H](OC(N)=O)[C@@H](O)[C@H](Oc2ccc3c(O)c(NC(=O)c4ccc(O)c(CC=C(C)C)c4)c(=O)oc3c2C)OC1(C)C` [Novobiocin], the IC25 growth inhibition in the assay on Escherichia coli ED1a is at most 5 µM; in assay [1], at most 5 µM; with Clostridium ramosum it was at most 5 µM; in the assay on Coprococcus comes it was under 1.25 µM; in the assay with Bacteroides uniformis, under 1.25 µM; in the assay with Ruminococcus gnavus, under 1.25 µM. Further, the IC25 growth inhibition is under 1.25 µM with Roseburia intestinalis; under 1.25 µM in the assay on Bacteroides vulgatus; under 1.25 µM in assay [2]; at most 20 µM in assay [3]; under 1.25 µM with Dorea formicigenerans; under 1.25 µM with Clostridium bolteae. Besides, the IC25 growth inhibition was under 1.25 µM in the assay on Streptococcus salivarius; under 1.25 µM with Vibrio cholerae; under 1.25 µM in the assay on Parabacteroides merdae; at most 20 µM in assay [4]; at most 20 µM in the assay with Bacteroides fragilis NT; at most 2.5 µM with Shigella flexneri. The IC25 growth inhibition was at most 20 µM in assay [5]; at most 10 µM in assay [6]; at most 5 µM in the assay on Clostridium perfringens; at most 40 µM in assay [7]; at most 5 µM with Eubacterium rectale; under 1.25 µM in the assay with Collinsella aerofaciens.

As to `N=C(N)c1ccc(OCCCCCOc2ccc(C(=N)N)cc2)cc1` [Pentamidine Isothionate], the IC25 growth inhibition was over 160 µM in the assay with Escherichia coli ED1a; at most 10 µM in [1]; at most 40 µM with Clostridium ramosum; under 1.25 µM in the assay with Coprococcus comes; at most 20 µM in the assay on Bacteroides uniformis; at most 2.5 µM in the assay with Ruminococcus gnavus. For the same molecule, the IC25 growth inhibition with Roseburia intestinalis was at most 5 µM; in the assay with Bacteroides vulgatus it was at most 20 µM; in assay [2] it was at most 10 µM; in assay [3] it was at most 20 µM; with Dorea formicigenerans, under 1.25 µM; in the assay on Clostridium bolteae, over 160 µM. Further, the IC25 growth inhibition is at most 10 µM in the assay with Streptococcus salivarius; over 160 µM with Vibrio cholerae; at most 5 µM in the assay on Parabacteroides merdae; at most 160 µM in assay [4]; at most 80 µM in the assay on Bacteroides fragilis NT; at most 160 µM in the assay on Shigella flexneri. For the same molecule, the IC25 growth inhibition in assay [5] is over 80 µM; in assay [6], at most 10 µM; in the assay with Clostridium perfringens it was at most 2.5 µM; in the assay with Eubacterium rectale, at most 5 µM; with Collinsella aerofaciens, at most 10 µM.

`CN[C@H]1CC[C@@H](c2ccc(Cl)c(Cl)c2)c2ccccc21` [Sertraline]: the IC25 growth inhibition in the assay on Escherichia coli ED1a is at most 160 µM; in assay [1] it was at most 160 µM; in the assay with Clostridium ramosum, at most 80 µM; with Coprococcus comes, at most 160 µM; with Bacteroides uniformis, at most 160 µM; in the assay with Ruminococcus gnavus, at most 40 µM. The IC25 growth inhibition is at most 40 µM in the assay on Roseburia intestinalis; over 160 µM with Bacteroides vulgatus; at most 160 µM in assay [2]; at most 80 µM in [3]; at most 80 µM in the assay with Dorea formicigenerans; at most 160 µM in the assay on Clostridium bolteae. Also, the IC25 growth inhibition in the assay with Streptococcus salivarius is at most 80 µM; with Vibrio cholerae, at most 80 µM; in the assay with Parabacteroides merdae, at most 80 µM; in assay [4], at most 160 µM; in the assay on Bacteroides fragilis NT, at most 160 µM; with Shigella flexneri, at most 160 µM. For the same molecule, the IC25 growth inhibition was at most 80 µM in assay [5]; at most 80 µM in assay [6]; at most 80 µM with Clostridium perfringens; over 160 µM in assay [7]; at most 10 µM in the assay on Eubacterium rectale; at most 80 µM in the assay with Collinsella aerofaciens.

On to `O=C(O)Cc1cc(I)c(Oc2ccc(O)c(I)c2)c(I)c1` [Tiratricol], for which the IC25 growth inhibition is over 160 µM in the assay with Escherichia coli ED1a; at most 40 µM in assay [1]; at most 20 µM with Clostridium ramosum; at most 20 µM in the assay on Coprococcus comes; at most 80 µM in the assay with Bacteroides uniformis; at most 20 µM in the assay with Ruminococcus gnavus. Further, the IC25 growth inhibition is at most 40 µM with Roseburia intestinalis; at most 40 µM with Bacteroides vulgatus; at most 20 µM in [2]; at most 80 µM in assay [3]; at most 80 µM in the assay with Dorea formicigenerans; at most 80 µM with Clostridium bolteae. For the same molecule, the IC25 growth inhibition in the assay on Streptococcus salivarius is at most 10 µM; in the assay with Vibrio cholerae, at most 80 µM; in the assay on Parabacteroides merdae, at most 40 µM; in assay [4], over 160 µM; with Bacteroides fragilis NT, at most 80 µM; in the assay on Shigella flexneri, over 160 µM. Further, the IC25 growth inhibition in assay [5] is over 160 µM; in assay [6] it was at most 20 µM; in the assay on Clostridium perfringens, at most 20 µM; in [7], over 160 µM; with Eubacterium rectale, at most 160 µM; in the assay with Collinsella aerofaciens, at most 80 µM.
